From PubChem BioAssay (NCI)
Values joined by “and” are separate entries in the source; they are usually repeats but may differ in a detail not shown here. Equal entries are not always repeated.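 In this assay, cells in 96-well plates receive the compound at five concentrations for 48 hours. Endpoints are linearly interpolated between the surrounding concentrations. GI50: concentration for 50% inhibition of growth. TGI: concentration producing complete growth inhibition.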

Columns and labels:
Experiment in all cases: NCI tumour cell line growth inhibition, 48 h
A498 renal = test system: A498 renal
HCT-116 colon = test system: HCT-116 colon
HT29 colon = test system: HT29 colon
KM12 colon = test system: KM12 colon
NCI-H522 lung = test system: NCI-H522 lung
RXF 393 renal = test system: RXF 393 renal
SF-295 CNS = test system: SF-295 CNS
DU-145 prostate = test system: DU-145 prostate
MDA-MB-231 breast = test system: MDA-MB-231 breast
PC-3 prostate = test system: PC-3 prostate

Row | SMILES | TGI (A498 renal) [µM] | TGI (HCT-116 colon) [µM] | TGI (HT29 colon) [µM] | TGI (KM12 colon) [µM] | TGI (NCI-H522 lung) [µM] | TGI (RXF 393 renal) [µM] | TGI (SF-295 CNS) | TGI (DU-145 prostate) [µM] | TGI (MDA-MB-231 breast) [µM] | TGI (PC-3 prostate) [µM] | GI50 (DU-145 prostate) | GI50 (HT29 colon) | GI50 (KM12 colon) | GI50 (MDA-MB-231 breast) | GI50 (NCI-H522 lung) [µM] | GI50 (PC-3 prostate) | GI50 (RXF 393 renal) | GI50 (SF-295 CNS) | GI50 (A498 renal) | GI50 (HCT-116 colon)
1 | Cc1cc(S(=O)(=O)O)c(NC(=O)C(=O)Cc2cc(=O)oc3cc(O)ccc23)cc1Cl | > 100 | > 100 | > 100 | > 100 | > 100 | > 100 | > 100 µM |  |  |  |  |  |  |  |  |  |  |  |  | 
2 | CCOP(=O)(OCC)OC1C=CC2CCC1C2 (stereo unspecified) | > 100 | > 100 | > 100 | > 100 | > 100 | > 100 | > 100 µM |  |  |  |  |  |  |  |  |  |  |  |  | 
3 | O=P1(c2ccccc2)CCCCC1 | > 100 | > 100 | > 100 | > 100 |  | > 100 | > 100 µM |  |  |  |  |  |  |  |  |  |  |  |  | 
4 | CC1(C)CC(=O)C(C=NC(=O)c2ccncc2)=C(O)C1 |  | > 100 | > 100 | > 100 | > 100 | > 100 | > 100 µM | > 100 | > 100 | > 100 |  |  |  |  |  |  |  |  |  | 
5 | COC(=O)/C=C/c1c(CC=C(C)C)ncn1C | > 100 | > 100 | > 100 | > 100 | > 100 | > 87 | > 100 µM |  |  |  |  |  |  |  |  |  |  |  |  | 
6 | Cc1nn(C(=O)Cc2ccccc2)c2c1C(c1ccc(Cl)cc1)SC(N)=N2 (stereo unspecified) | > 100 | > 100 | > 100 | > 100 | > 100 |  | > 100 µM | > 100 | > 100 | > 100 |  |  |  |  |  |  |  |  |  | 
7 | CN1C(=O)/C(=C/c2c(Cl)n(C)c3ccccc23)c2ccccc21 |  | 1.39 | 17.8 | 3.49 |  | 3.84 | 7.76 µM and 2.99 µM |  | 8.59 |  | 5.05 µM | 4.37 µM and 5.57 µM | 3.34 µM and 1.31 µM | 1.99 µM | 5.12 | 2.67 µM | 7.89 µM and 1.56 µM | 2.74 µM and 1.58 µM |  | 
8 | CCCO/S(=N\S(=O)(=O)c1ccccc1)c1ccccc1[N+](=O)[O-] (stereo unspecified) |  | > 100 | > 100 | > 100 | > 100 |  | > 100 µM |  |  |  |  |  |  |  |  |  |  |  |  | 
9 | COC(=O)[C@@H](C)C[C@H](Cc1ccccc1)NC(=O)c1csc([C@@H](C[C@H](C(C)C)N(C)C(=O)[C@@H](NC(=O)[C@H]2CCCCN2C)C2CCCCC2)OC(C)=O)n1 |  | 0.00325 | 4.95 | > 25 |  |  | > 25 µM |  |  | 20.9 | 0.000291 µM and 0.0025 µM | 0.000314 µM and 0.0025 µM | 0.000296 µM and 0.0025 µM | 0.00115 µM and 0.0025 µM |  | 0.000435 µM and 0.0025 µM | 0.00103 µM | 0.000346 µM and 0.0025 µM | 0.000272 µM and 0.0025 µM | 0.000325 µM and 0.0025 µM
10 | O[C@H](c1cc(C(F)(F)F)nc2c(C(F)(F)F)cccc12)[C@@H]1CCCCN1 | 22.1 | 5.44 | 5.98 | 3.34 |  | 13.5 | 5.36 µM | 10.6 | 4.08 | 5.79 | 3.41 µM | 2.49 µM | 1.63 µM | 1.78 µM |  | 2.08 µM | 3.82 µM | 2.08 µM | 8.98 µM | 2.3 µM
11 | COc1ncc(-c2ccc3ncnc(Nc4cccc(Cl)c4)c3c2)cc1NS(=O)(=O)C1CC1 |  |  |  | > 100 |  | > 100 |  |  | > 100 | > 100 |  |  | 38.9 µM | 3.38 µM |  | > 100 µM | 0.519 µM |  |  | 
12 | COc1c[c]([Hg][O]C(C)=O)c(OC)c(NC(=O)CC(C)=O)[c]1[Hg][O]C(C)=O | 22.6 | 34.8 | 19.6 | > 62.1 | 0.154 | 7.3 | > 55.8 µM |  |  |  |  | 4.21 µM | > 43.2 µM |  |  |  | 2.86 µM | > 41.7 µM | 8.03 µM | 13.1 µM
13 | CNS(=O)(=O)NNS(=O)(=O)c1ccc(Br)cc1 | > 100 | > 100 | > 100 |  | > 100 | > 100 |  |  |  |  |  |  |  |  |  |  |  |  |  | 
14 | CC(C)C(=O)NS(=O)(=O)c1ccccc1 | > 100 | > 100 | > 100 | > 100 | > 100 | > 100 | > 100 µM |  |  |  |  |  |  |  |  |  |  |  |  | 
15 | CC1COC(C)(C)P(=O)(c2ccccc2)C1 (stereo unspecified) | > 100 | > 100 | > 100 | > 100 | > 100 | > 100 | > 100 µM |  |  |  |  |  |  |  |  |  |  |  |  | 
16 | c1ccc2nc3c(nc2c1)sc1ccccc13 | 78.2 | > 100 | > 100 | > 100 | > 100 |  | > 100 µM | > 100 | > 100 |  |  |  |  |  |  |  |  |  |  | 
17 | CC(C)N(CCn1c2c3ccccc3ccc2c2oc(=O)c3ccccc3c21)C(C)C | > 100 | > 100 | > 100 | > 100 | > 100 | > 100 | > 95.1 µM |  |  |  |  |  |  |  |  |  |  |  |  | 
18 | CC(=O)[O][Ga]([Br])[O]C(C)=O | > 100 | > 100 | > 100 | > 100 | > 100 | > 100 | > 100 µM |  |  |  |  | > 100 µM | > 100 µM |  | > 100 |  | > 100 µM | > 100 µM | > 100 µM | > 100 µM
19 | Cc1c(/C=N/NC(=O)c2ccc(Cl)cc2)c(=O)n(-c2ccccc2)n1C |  | > 100 | > 100 | > 100 | > 100 | > 100 | > 100 µM |  |  |  |  |  |  |  |  |  |  |  |  | 
20 | O=C1c2ccccc2-c2c1c1ccccc1c(=O)n2CCCCl | 28.5 | 17.8 | > 100 | > 100 | > 100 |  | 23.1 µM | > 100 | 39.8 | > 100 | 6.22 µM | 37.2 µM | 34 µM | 11.4 µM | 37.4 | 24.9 µM |  | 6.34 µM | 7.88 µM | 3.65 µM
21 | CCn1c(=O)c2c(=O)c3c4c(oc3oc2c2ccccc21)C(=O)c1ccccc1C4=O | > 100 | > 100 |  | > 100 | > 100 | > 100 | > 100 µM | > 100 |  | > 100 | > 100 µM |  | > 100 µM |  | > 100 | 8.71 µM | > 31.7 µM | > 24.2 µM | 0.461 µM | 
22 | O=C(/C=C/c1ccccc1Cl)NC1C=Nc2ccc([N+](=O)[O-])cc2NC1 (stereo unspecified) | > 100 | > 100 |  | > 100 | > 100 | > 100 | > 100 µM |  |  |  |  |  |  |  |  |  |  |  |  | 
23 | O=Cc1ccc2c(c1-c1c(C=O)ccc3c1OCO3)OCO2 | > 100 | > 100 | > 100 | > 100 | > 100 |  | > 100 µM |  |  |  |  |  |  |  |  |  |  |  |  | 
